Results taken from patent US20190127366A1 (LifeSci Pharmaceuticals, Inc., priority 2015, published 2019).

Tests used:
[1] = test system: alternative pathway (AP) hemolytic activity; test: AP hemolysis inhibition assay; assay type: cell-based; settings: Erythrocyte, 1 h; Normal Human Serum, chicken or rabbit erythrocytes, 60 min at 37° C., OD 414 nm
Description: The ability of the compounds disclosed herein to inhibit alternative pathway (AP) hemolytic activity was determined. Red blood cells (RBC), chicken or rabbit erythrocyctes (SbjBio), were washed three time using assay buffer containing 0.1% gelatin, 5 mM Veronal, 145 mM NaCl, 0.025% NaN3, 10 mM Mg-EGTA pH 7.3. In 100 μL reaction system, 1300 to 1500 ng/μL final concentration of Normal Human Serum (CompTech) was incubated with compound for 15 min at 37° C. Then 2×10^6 cells/well of chicken or rabbit erythrocytes in assay buffer were added and incubated for an additional 60 min at 37° C. Positive control (100% lysis) consists of serum and RBC, and negative control (0% lysis) consists of assay buffer and RBC only. Samples were centrifuged at 2000 g for 5 min, and supernatants collected. Optical density of the supernatant is monitored at 414 nm using Synergy 2 (BioTek). Percentage lysis in each sample is calculated relative to positive control (100% lysis).
Table 3 discloses the inhibitory activity of the compounds provided herein in the hemolysis assay.

[2] = biological target: T1, human complement factor D (Homo sapiens, UniProt P00746); test: In vitro enzyme inhibition (Z-Lys-SBzl/DTNB absorbance assay); assay type: biochemical; settings: Complement Factor D (R&D Systems), substrate Z-Lys-SBzl, A405 nm; read-out: CFD IC50
T1 construct: purchased R&D Systems 1824-SE
Outline: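 Factor D (6.25 ng/μL before addition) preincubated 5 min RT with compound (8 points from 50 μM, 6-fold, 0.5% DMSO final) in 50 mM Tris/HCl pH 7.5, 1 M NaCl, then Z-Lys-SBzl/DTNB added (200 μM each before addition). A405 read kinetically every 30 s for 60 min; IC50 from variable-slope fit, controls with and without enzyme.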

T1 sequence (P00746 26-253): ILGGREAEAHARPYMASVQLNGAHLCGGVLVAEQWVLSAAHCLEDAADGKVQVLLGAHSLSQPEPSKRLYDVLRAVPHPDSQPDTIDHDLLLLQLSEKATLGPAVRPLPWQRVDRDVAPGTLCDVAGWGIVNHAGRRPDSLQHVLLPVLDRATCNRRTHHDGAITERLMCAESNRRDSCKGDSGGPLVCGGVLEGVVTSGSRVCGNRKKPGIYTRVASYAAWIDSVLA

IC50 [2] [nM] | SMILES | EC50 [1] [nM]
100 to 1000 | Cc1cc(Cl)nc(NC(=O)[C@@H]2[C@H]3CC[C@H](C3)N2C(=O)Cn2nc(C(N)=O)c3ccccc32)c1 [Example 77, 1-(2-((1R,3S,4S)-3-((6-chloro-4-methylpyridin-2-yl)carbamoyl)-2-azabicyclo[2.2.1]heptan-2-yl)-2-oxoethyl)-1H-indazole-3-carboxamide] | 100 to 1000
< 100 | NC(=O)c1nn(CC(=O)N2CC[C@H]2C(=O)NCc2cccc(Cl)c2F)c2ccccc12 [Example 185, (S)-1-(2-(2-((3-chloro-2-fluorobenzyl)carbamoyl)azetidin-1-yl)-2-oxoethyl)-1H-indazole-3-carboxamide] | < 100
100 to 1000 | NC(=O)c1nn(CC(=O)N2C3CCC(C3)[C@H]2C(=O)Nc2cccc(Cl)n2)c2ccc(C3CC3)cc12 (stereo partly drawn) [Example 11, 1-(2-((3S)-3-((6-chloropyridin-2-yl)carbamoyl)-2-azabicyclo[2.2.1]heptan-2-yl)-2-oxoethyl)-5-cyclopropyl-1H-indazole-3-carboxamide] | 1000 to 10000
100 to 1000 | NC(=O)c1nn(CC(=O)N2[C@@H]3CC[C@@H](C3)[C@H]2C(=O)Nc2cccc(Cl)n2)c2cc(N)ccc12 [Example 93, 6-amino-1-(2-((1R,3S,4S)-3-((6-chloropyridin-2-yl)carbamoyl)-2-azabicyclo[2.2.1]heptan-2-yl)-2-oxoethyl)-1H-indazole-3-carboxamide 2,2,2-trifluoroacetate] | 100 to 1000
100 to 1000 | NC(=O)c1nn(CC(=O)N2[C@@H]3CC[C@@H](C3)[C@H]2C(=O)Nc2cccc(Cl)n2)c2cc(CO)ccc12 [Example 125, 1-(2-((1R,3S,4S)-3-((6-chloropyridin-2-yl)carbamoyl)-2-azabicyclo[2.2.1]heptan-2-yl)-2-oxoethyl)-6-(hydroxymethyl)-1H-indazole-3-carboxamide] | 100 to 1000
100 to 1000 | NC(=O)c1nn(CC(=O)N2[C@H](C(=O)Nc3cccc(Cl)n3)C[C@@H]3CCC[C@@H]32)c2ccc(F)cc12 [Example 169, 1-(2-((2S,3aS,6aS)-2-((6-chloropyridin-2-yl)carbamoyl)hexahydrocyclopenta[b]pyrrol-1(2H)-yl)-2-oxoethyl)-5-fluoro-1H-indazole-3-carboxamide] | 100 to 1000
< 100 | CC(=O)c1nn(CC(=O)N2[C@@H]3CC[C@@H](C3)[C@H]2C(=O)Nc2cccc(Cl)n2)c2ccccc12 [Example 80, (1R,3S,4S)-2-(2-(3-acetyl-1H-indazol-1-yl)acetyl)-N-(6-chloropyridin-2-yl)-2-azabicyclo[2.2.1]heptane-3-carboxamide] | 100 to 1000
100 to 1000 | COC(=O)c1ccc2c(C(N)=O)nn(CC(=O)N3[C@@H]4CC[C@@H](C4)[C@H]3C(=O)Nc3cccc(Cl)n3)c2c1 [Example 122, methyl 3-carbamoyl-1-(2-((1R,3S,4S)-3-((6-chloropyridin-2-yl)carbamoyl)-2-azabicyclo[2.2.1]heptan-2-yl)-2-oxoethyl)-1H-indazole-6-carboxylate] | 100 to 1000
100 to 1000 | NC(=O)c1nn(CC(=O)N2[C@@H]3CC[C@@H](C3)[C@H]2C(=O)Nc2cccc(Cl)n2)c2ccc(C3CC3)cc12 [Example 56, 1-(2-((1R,3S,4S)-3-((6-chloropyridin-2-yl)carbamoyl)-2-azabicyclo[2.2.1]heptan-2-yl)-2-oxoethyl)-5-cyclopropyl-1H-indazole-3-carboxamide 2,2,2-trifluoroacetate] | 100 to 1000
< 100 | CC(=O)c1nn(CC(=O)N2CC[C@H]2C(=O)NCc2cccc(Cl)c2F)c2ccccc12 [Example 190, (S)-1-(2-(3-acetyl-1H-indazol-1-yl)acetyl)-N-(3-chloro-2-fluorobenzyl)azetidine-2-carboxamide] | < 100
100 to 1000 | NC(=O)n1cc(NC(=O)N2[C@@H]3CC[C@@H](C3)[C@H]2C(=O)Nc2cccc(Cl)n2)c2ccccc21 [Example 156, (1R,3S,4S)-N2-(1-carbamoyl-1H-indol-3-yl)-N3-(6-chloropyridin-2-yl)-2-azabicyclo[2.2.1]heptane-2,3-dicarboxamide] | 100 to 1000
< 100 | NC(=O)c1nn(CC(=O)N2[C@@H]3CC[C@@H](C3)[C@H]2C(=O)Nc2cc(C(=O)O)cc(Cl)n2)c2ccccc12 [Example 104, 2-((1R,3S,4S)-2-(2-(3-carbamoyl-1H-indazol-1-yl)acetyl)-2-azabicyclo[2.2.1]heptane-3-carboxamido)-6-chloroisonicotinic acid] | < 100
< 100 | NC(=O)c1nn(CC(=O)N2[C@@H]3CC[C@@H](C3)[C@H]2C(=O)Nc2cccc(Cl)n2)c2cc(F)ccc12 [Example 71, 1-(2-((1R,3S,4S)-3-((6-chloropyridin-2-yl)carbamoyl)-2-azabicyclo[2.2.1]heptan-2-yl)-2-oxoethyl)-6-fluoro-1H-indazole-3-carboxamide] | 100 to 1000
< 100 | NC(=O)c1nn(CC(=O)N2[C@@H]3CC[C@@H](C3)[C@H]2C(=O)Nc2cncc(Cl)n2)c2ccccc12 [Example 59, 1-(2-((1R,3S,4S)-3-((6-chloropyrazin-2-yl)carbamoyl)-2-azabicyclo[2.2.1]heptan-2-yl)-2-oxoethyl)-1H-indazole-3-carboxamide] | 100 to 1000
100 to 1000 | NC(=O)c1nn(CC(=O)N2[C@H](C(=O)Nc3cccc(Cl)n3)C[C@@H]3CCC[C@@H]32)c2ccccc12 [Example 159, 1-(2-((2S,3aS,6aS)-2-((6-chloropyridin-2-yl)carbamoyl)hexahydrocyclopenta[b]pyrrol-1(2H)-yl)-2-oxoethyl)-1H-indazole-3-carboxamide] | 100 to 1000
100 to 1000 | NC(=O)c1nn(CC(=O)N2[C@@H]3CC[C@@H](C3)[C@H]2C(=O)Nc2cccc(Cl)c2F)c2ccccc12 [Example 18, 1-(2-((1R,3S,4S)-3-((3-chloro-2-fluorophenyl)carbamoyl)-2-azabicyclo[2.2.1]heptan-2-yl)-2-oxoethyl)-1H-indazole-3-carboxamide] | 1000 to 10000
< 100 | NC(=O)c1nn(CC(=O)N2[C@H](C(=O)NCc3cccc(Cl)c3F)C[C@@H]3CCC[C@@H]32)c2ccccc12 [Example 157, 1-(2-((2S,3aS,6aS)-2-((3-chloro-2-fluorobenzyl)carbamoyl)hexahydrocyclopenta[b]pyrrol-1(2H)-yl)-2-oxoethyl)-1H-indazole-3-carboxamide] | 100 to 1000
< 100 | NC(=O)n1nc(CC(=O)N2CC[C@H]2C(=O)NCc2cccc(Cl)c2F)c2ccccc21 [Example 188, (S)-3-(2-(2-((3-chloro-2-fluorobenzyl)carbamoyl)azetidin-l-yl)-2-oxoethyl)-1H-indazole-1-carboxamide] | 100 to 1000

SMILES | IC50 [2] [nM] | EC50 [1] [nM]
NC(=O)c1nn(CC(=O)N2C3CCC(C3)[C@H]2C(=O)Nc2cccc(Cl)n2)c2ccccc12 (stereo partly drawn) [Example 10, 1-(2-((3S)-3-((6-chloropyridin-2-yl)carbamoyl)-2-azabicyclo[2.2.1]heptan-2-yl)-2-oxoethyl)-1H-indazole-3-carboxamide] | < 100 | 100 to 1000
NC(=O)c1nn(CC(=O)N2[C@@H]3CC[C@@H](C3)[C@H]2C(=O)Nc2cccc(Cl)n2)c2ccccc12 [Example 1, 1-(2-((1R,3S,4S)-3-((6-chloropyridin-2-yl)carbamoyl)-2-azabicyclo[2.2.1]heptan-2-yl)-2-oxoethyl)-1H-indazole-3-carboxamide] | < 100 | 100 to 1000
